Laboratory results: patent US20230192765A1, “PEPTIDES TARGETING SHP2 AND USES THEREOF” (UNIVERSITÀ DEGLI STUDI DI ROMA "TOR VERGATA", priority 2020, published 2023)
Where two headings read alike, the source gives them in different places. Primed or numbered codes have the meaning given here. [ ]: non-standard residue; d: D form. 5,6‑carboxyfluorescein″ = CF is 5,6 carboxyfluorescein; pY = N[C@@H](Cc1ccc(OP(=O)(O)O)cc1)C(=O)O

Columns and labels:
[1] = format: in vitro ADME; details: human serum, up to 90 minutes, 37° C.
Experimental: (§1) The peptides were dissolved in DMSO (C=5 mg/mL). In eppendorf tubes, 1 mL of HEPES buffer (C = 25 mM, pH = 7.6) was temperature equilibrated at 37° C. before adding 250 µL of human serum and 20 µL of peptide solution; the reaction was followed for 90 minutes. At fixed intervals, 100 µL of the solution were withdrawn and added to 200 µL of absolute ethanol. These samples were kept on ice for 15 minutes, then centrifuged at 13,000 rpm for 5 minutes; the supernatant solutions were analyzed by HPLC and HPLC-MS with 20-60% B gradient in 20 minutes to follow the reaction. In parallel, samples containing peptide, buffer and ethanol only were also analyzed, too. A degradation resistance test was also conducted in DMEM (Dulbecco’s Modified Eagle Medium). The experimental conditions are similar to those described above; the reaction was followed for 72 hours. The enzymatic degradation resistance tests were followed by HPLC using a 5-50% B gradient in 20 minutes.

[2] = Peptide stability in DMEM; format: in vitro ADME; details: three days
Experimental: as §1

[3] = system: zebrafish embryos injected with Shp2a-D61G mRNA; test: In vivo zebrafish rescue experiments, Shp2a-D61G embryos
Experimental: (§2) One cell stage zebrafish embryos were injected with a mixture of 120 ng/µl of mRNA encoding either GFP-2A-Shp2-D61G or GFP-2A-Shp2-wt (as a control), with or without OP, at 0.3 µM, 3 µM and 5 µM concentration. Embryos were selected based on proper GFP expression and imaged at 11 hours post fertilization (hpf) in their lateral position using the Leica M165 FC stereomicroscope. Images were analyzed using ImageJ [Schneider 2012], by measuring the ratio of the major and minor axis from a minimum of 31 embryos. Statistical analysis was performed in GraphPad Prism, using the analysis of variance (ANOVA) complemented by Tukey’s honest significant difference test (Tukey’s HSD). To measure the survival of injected embryos, a minimum of 48 embryos per group were grown up to 4 days post fertilization (dpf) and counted at 1 dpf and 4 dpf. Survival curves were plotted using GraphPad Prism, and the differences between samples were determined using the Log-rank (Mantel-Cox) test.

[4] = system: zebrafish embryos injected with Shp2a-WT mRNA; test: In vivo zebrafish experiments, Shp2a-WT embryos
Experimental: as §2

[5] = system: pathogenic variants of SHP2; details: literature [Sun 2018; LaRochelle 2018]; cited from earlier work
NIH3T3 cells [6] = test: Cell uptake experiments (FACS); format: cell-based; details: TAT linked to the C-terminus
Experimental: Cell uptake experiments were performed on NIH3T3 cells. About 200,000 cells were seeded on six-well plates and cultured in Dulbecco’s modified Eagle’s medium supplemented with 10% heat-inactivated fetal bovine serum (Gibco) and 1 % penicillin-streptomycin, at 37° C. with 5% CO2.
Two different strategies were followed. In a first set of experiments, the fluorescent peptide has been incubated with the cell-penetrating peptide (CPP) Pep-1. A Pep-1 stock solution was prepared by dissolving the peptide in ultrapure water. The fluorescent peptide was diluted in PBS from the DMSO stock solution. The peptides were mixed and incubated for 30 minutes at room temperature in a final volume of 400 µl. The conditions for cell delivery were optimized by investigating different cargo to CPP ratios. The mixture was then added to the cells, washed with PBS, together with 600 µl of serum-free medium (volumes for one well are reported). After one hour, 10% of fetal bovine serum (FBS) was added.
(§3) Cells were incubated for different times and then washed, collected and stained with SYTOX blue (1 mM, Invitrogen™) to identify the viable population and the green fluorescence of CFP9W5 was recordered to measure peptide uptake. Data were analysed with Kaluza Analysis Software (Beckman Coulter).
A second set of measurement was carried out using the TAT-conjugated peptide analog. […]

NIH3T3 cells [7] = test: Peptide toxicity in the cell uptake experiments (Sytox); format: cell-based; details: all the concentrations tested
Experimental: Cell viability in the FACS experiment was determined by using Sytox fluorescence.
as §3

Compound: CC[C@H](C)[C@H](NC(=O)[C@H](Cc1ccc(C(F)(F)P(=O)(O)O)cc1)NC(=O)[C@H](CC(N)=O)NC(=O)[C@H](CC(C)C)NC(=O)CNC(C)=O)C(=O)N[C@@H](CC(=O)O)C(=O)N[C@@H](CC(C)C)C(=O)N[C@@H](CC(=O)O)C(=O)N[C@@H](Cc1c[nH]c2ccccc12)C(N)=O [Peptide P9ND0W5, GLN-F2Pmp-IDLDW]
- degradation (HPLC) [1]: No significant degradation
- degradation (HPLC) [2]: No significant degradation
- rescue of the gastrulation phenotype ([3]; 5 µM peptide): significant
- survival of embryos ([3]; co-injection 0.3 µM, 3 µM and 5 µM, counted 1 dpf and 4 dpf): significant and dose dependent improvement
- lethality of embryos ([4]; co-injection of 3 µM): not affected
- embryo shape at 11 hpf ([4]; co-injection with 3 µM peptide): no impact on their shape

Compound: CC1(N)CCN(c2cnc(-c3cccc(Cl)c3Cl)c(N)n2)CC1 [SHP099]
- activity in pathogenic variants of SHP2 [5]: significantly impaired activity

Compound: CF-GLN-pY-IDLDW-GRKKRRQRRR ({5,6‑carboxyfluorescein″}-GLN[pY]IDLDWGRKKRRQRRR-NH2) [CF-P9W5-TAT]
- cell uptake, covalent strategy (NIH3T3 cells [6]): efficiently obtained
- cell killing (NIH3T3 cells [7]): did not cause any cell killing
